Data on four compounds can be found in patent US20250136578A1 (Kolm Therapeutics Inc., priority 2023, published 2025).

The structures appear in SMILES notation.

The assay concerns VCaP cells. The assay is described as follows: VCaP growth inhibition assay (CTG). The class given is cell-based. The settings on record: Homo sapiens, 216 h, 30 pM R1881, 9 days. The method, then:
VCaP cells (ATCC Cat #CRL-2876) are plated at 1×10^4 cells per well of a white plastic 96-well cluster plate (Thermo Scientific Nunc Cat #165306) in 100 uL phenol red-free DMEM (Gibco Cat #21063-029) media with 5% CSS (Omega Scientific Cat #FB-04). Cluster plates are returned to the incubator (37*C/5% CO2) for 72 hours prior to treatment. Just prior to treatment, 100 uL of phenol red-free DMEM/5% CSS and 60 pM R1881 (Sigma Cat #R0908-10 mg) was added to each well of the cluster plates (Final R1881 concentration=30 pM). Compounds (200X) were added to each well in a volume of 1 uL, with serial dilutions (1:5) from 20 uM to 2 pM (final concentrations in well are 100 nM to 10 fM). Cluster plates are returned to the incubator for 9 days.
After the 9-day treatment period, media was removed from the cluster plates by inversion and 100 uL room temperature CTG reagent (Promega Cat #G7573) is added to each well. The cluster plates are placed on a shaker and incubated at room temperature for 20 minutes. Following this shaking/incubation, cluster plates are read on a luminometer (BMG ClarioStar). IC50 values are obtained by graphing the RLU data vs. compound concentration with nonlinear regression 4-parameter logistic curves (GraphPad Prism).
Take `CC(=O)N1CCc2c(c(-c3cccc4cc(-c5cnn(CC6CCN(c7ccc(C(=O)N[C@H]8CC[C@H](Oc9ccc(C#N)c(Cl)c9)CC8)nn7)CC6)c5)ncc34)nn2C)C1` [Compound 7, 6-[4-[[4-[8-(5-acetyl-1-methyl-6,7-dihydro-4H-pyrazolo[4,3-c]pyridin-3-yl)-3-isoquinolyl]pyrazol-1-yl]methyl]-1-piperidyl]-N-[4-(3-chloro-4-cyano-phenoxy)cyclohexyl]pyridazine-3-carboxamide]: the IC50 was at most 0.1 nM.

As to `CC(=O)N1CCc2c(c(N3CCCc4cc(-c5ccc(OC6CC7(CCN(c8ccc(C(=O)N[C@H]9CC[C@H](Oc%10ccc(C#N)c(Cl)c%10)CC9)nn8)CC7)C6)nc5)c(C(F)F)cc43)nn2C2CCOCC2)C1` [Compound 202, 6-[2-[[5-[1-(5-acetyl-1-tetrahydropyran-4-yl-6,7-dihydro-4H-pyrazolo[4,3-c]pyridin-3-yl)-7-(difluoromethyl)-3,4-dihydro-2H-quinolin-6-yl]-2-pyridyl]oxy]-7-azaspiro[3.5]nonan-7-yl]-N-[4-(3-chloro-4-cyano-phenoxy)cyclohexyl]pyridazine-3-carboxamide], the IC50 was in the range of 0.1 to 1 nM. In the case of `CC(=O)N1CCc2c(c(Nc3ccc(-c4cnn(C)c4)cc3F)nn2C2CCN(CCC3CCN(c4ncc(C(=O)N[C@H]5CC[C@H](Oc6ccc(C#N)c(Cl)c6)CC5)cn4)CC3)CC2)C1` [Compound 10, 2-[4-[2-[4-[5-acetyl-3-[2-fluoro-4-(1-methylpyrazol-4-yl)anilino]-6,7-dihydro-4H-pyrazolo[4,3-c]pyridin-1-yl]-1-piperidyl]ethyl]-1-piperidyl]-N-[4-(3-chloro-4-cyano-phenoxy)cyclohexyl]pyrimidine-5-carboxamide], the IC50 was in the range of 0.1 to 1 nM. Compound `COC1(CN2CCC(n3nc(N4CCCc5cc(-c6cnn(C)c6)c(C(F)F)cc54)c4c3CCN(C(C)=O)C4)CC2)CCN(c2ccc(C(=O)N[C@H]3CC[C@H](Oc4ccc(C#N)c(Cl)c4)CC3)nn2)CC1` [Compound 177, 6-[4-[[4-[5-acetyl-3-[7-(difluoromethyl)-6-(1-methylpyrazol-4-yl)-3,4-dihydro-2H-quinolin-1-yl]-6,7-dihydro-4H-pyrazolo [4,3-c]pyridin-1-yl]-1-piperidyl]methyl]-4-methoxy-1-piperidyl]-N-[4-(3-chloro-4-cyano-phenoxy)cyclohexyl]pyridazine-3-carboxamide] gave an IC50 of at most 0.1 nM.
